Patent US12404260B2, “Pyridine rings containing derivatives as MALT1 inhibitors” (Janssen Pharmaceutica NV, priority 2019, dated 2025)

How the values were obtained:
[1] = tested on: secretion of IL10 by OCI-LY3 ABC-DLBCL cells; assay: Human IL10 Mesoscale assay (OCI-LY3); type: cell-based; conditions: 24 h incubation, IL10 in supernatant
Description: (§1) NFKB signaling regulates the secretion of multiple cytokines, including IL6 and IL10. Secretion of the cytokines IL6 and IL10 by OCI-LY3 ABC-DLBCL cells was measured using a mesoscale assay. Inhibition of NFKB signaling by MALT1 inhibitors results in a decrease of IL6/10 secretion.
(§2) OCI-LY3 cells were propagated in RPMI-1640 (Sigma Aldrich) supplemented with 10% fetal bovine serum (HyClone), 1 mM sodium pyruvate (Invitrogen), 2 mM L-glutamine (Sigma Aldrich) and 1% PenStrep (Sigma Aldrich). Cell passage number should not exceed 30. Cells should be kept between 0.5-2.5 million cells per mL during culturing and cells should be supplemented every 2-3 days with fresh 50 μM beta-mercaptoethanol. No beta-mercaptoethanol was used during the mesoscale assay.
(§3) For the Mesoscale assay, 100,000 OCI-LY3 cells were seeded per well into black-colored 96-well plates with clear bottom (Corning #3904) and test compounds were added in 9 dilution steps (1:2) ranging from 15 μM to 58.6 nM (final DMSO concentration 0.3%). DMSO control wells were used to determine the maximum signal (High Control (HC)). Treatment with the BTK inhibitor RN486 in a dose range from 30 nM to […] (9 dilutions of 1:2) served as a positive control for NFKB pathway inhibition and was used to determine the maximum inhibition (Low Control (LC)). Compounds and cells were incubated for 24 h at 37° C. and 5% CO2 (assay volume is 150 μL). After 24 h of incubation 50 μL of the supernatant was transferred to a MSD plate (V-Plex Proinflammation Panel 1 (human) kit, Mesoscale (MSD)) and incubated for 2 h with vigorous shaking (600 rpm) at room temperature. Following incubation, plates were washed 3× with PBS+0.05% Tween-20 and 25 μL detection antibody solution (IL6 & IL10 antibodies in diluent 3 (MSD)) was added per well followed by 2 h of incubation with vigorous shaking (600 rpm) at room temperature. After 3× washes with PBS+0.05% Tween-20, plates were incubated with 150 μL 2× Read Buffer T and read on SECTOR imager.

[2] = target: T1, full-length MALT1 protein (Strep-MALT1(1-824)-His) (Homo sapiens, UniProt Q9UDY8); assay: MALT1 Biochemical Protease Assay; conditions: 10 nM FL MALT1, 200 μM Ac-LRSR-AMC, 50 min pre-incubation, 4 h at RT; read-out: MALT1_Biochemical activity (Ac-LRSR-amc) IC50
T1 construct: full-length MALT1 protein (Strep-MALT1(1-824)-His) purified from baculovirus-infected insect cells; Strep (N); His (C); made in house; host or cells: baculovirus-infected insect cells
T1 sequence (Q9UDY8 1-824): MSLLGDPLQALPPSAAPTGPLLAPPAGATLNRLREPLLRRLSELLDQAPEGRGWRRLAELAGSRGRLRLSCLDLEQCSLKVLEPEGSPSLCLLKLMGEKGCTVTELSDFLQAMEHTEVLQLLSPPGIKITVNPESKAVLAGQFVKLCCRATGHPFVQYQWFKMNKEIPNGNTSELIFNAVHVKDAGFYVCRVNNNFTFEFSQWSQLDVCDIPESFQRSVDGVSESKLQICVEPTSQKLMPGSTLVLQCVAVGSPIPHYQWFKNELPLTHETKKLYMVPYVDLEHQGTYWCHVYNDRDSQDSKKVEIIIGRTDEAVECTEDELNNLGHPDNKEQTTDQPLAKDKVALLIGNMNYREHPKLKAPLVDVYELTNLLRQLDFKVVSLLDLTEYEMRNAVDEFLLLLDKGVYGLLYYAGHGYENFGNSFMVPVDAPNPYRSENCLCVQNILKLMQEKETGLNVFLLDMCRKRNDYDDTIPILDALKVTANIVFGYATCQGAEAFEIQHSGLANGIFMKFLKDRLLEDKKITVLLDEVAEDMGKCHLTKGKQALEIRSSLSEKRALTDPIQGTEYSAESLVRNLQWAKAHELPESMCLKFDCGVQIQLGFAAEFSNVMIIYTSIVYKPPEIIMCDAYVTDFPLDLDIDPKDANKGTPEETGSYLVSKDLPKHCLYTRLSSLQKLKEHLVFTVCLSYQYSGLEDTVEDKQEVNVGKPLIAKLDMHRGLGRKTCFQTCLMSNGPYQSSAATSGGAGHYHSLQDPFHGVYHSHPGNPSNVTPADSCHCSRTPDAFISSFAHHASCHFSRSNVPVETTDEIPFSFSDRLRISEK
Description: MALT1 protease activity was assessed in an in vitro assay using a tetrapeptide as substrate and full-length MALT1 protein (Strep-MALT1(1-824)-His) purified from baculovirus-infected insect cells. The tetrapeptide LRSR is coupled to AMC (7-amino-4-methylcoumarin) and provides a quenched, fluorescent substrate for the MALT1 protease (SM Biochemicals). Cleavage of AMC from the Arginine residue results in an increase in coumarin fluorescence measured at 460 nm (excitation 355 nm). The final assay buffer consisted of 10 nM FL MALT1 protein, 200 μM Ac-LRSR-AMC, 50 mM Tris pH 7.5, 0.6 M Citrate, 1 mM DTT, 1 mM EDTA, 0.05% BSA and 1.5% DMSO. Test compounds were spotted at 50 nL in 100% DMSO per well of a black 384-Proxiplate (Perkin Elmer). Test compound concentrations ranged from 30 μM to 0.5 nM using 11 dilution steps (1:3). Background signal was measured from control wells containing assay buffer without enzyme which functions as low control (LC). High control (HC) values were generated using the reaction with enzyme but no compound treatment. Compounds were pre-incubated with MALT1 enzyme for 50 minutes at RT. Substrate was added subsequently and fluorescence was measured in Labsystems fluoroskan at excitation 355 nm and emission 460 nm to determine time 0. The reaction was subsequently incubated for 4 h at RT and fluorescence was measured. For IC50 calculations, timepoint 0 was subtracted from the 4 h timepoint to correct for any potential autofluorescence of the compounds. The enzyme reaction was linear during the 4 h incubation period. Characterization of the substrate Ac-LRSR-AMC determined the Michaelis constant KM at 200 μM.
IC50 values were calculated using the following formula (Z prime should be >0.5): […]
A best-fit curve was fitted by a minimum sum of squares method to the plot of % Controlmin vs. compound concentration. From this an IC50 value (inhibitory concentration causing 50% inhibition) can be obtained. An estimate of the slope of the plot in terms of the Hill coefficient was also obtained.
Used in “Lexis Dose Response Curve Fitting” Version 1.0.

[3] = tested on: secretion of IL6 by OCI-LY3 ABC-DLBCL cells; assay: Human IL6 Mesoscale assay (OCI-LY3); type: cell-based; conditions: 24 h incubation, IL6 in supernatant
Description: as §1, §2, §3

| IC50 [1] [nM] | IC50 [2] [nM] | IC50 [3] [nM] | IC50 ([1]; Homo sapiens) [nM] | IC50 ([3]; Homo sapiens) [nM] | Compound |
| --- | --- | --- | --- | --- | --- |
| 8130 | 3240 | 11000 |  |  | CCOC(=O)COc1cncc(NC(=O)Nc2cnc(-n3nccn3)c(Cl)c2)c1C(C)OC (racemic) [Co. 14] |
| > 3020 | 4170 | > 3020 |  |  | COC(C)c1c(C)cncc1NC(=O)Nc1cnc(-n2nccn2)c(Cl)c1 (racemic) [Co. 20] |
| 1100 | 600 | 1950 |  |  | COC(C)c1c(NC(=O)Nc2cnc(-n3nccn3)c(Cl)c2)cncc1C1CC1 (racemic) [Co. 28] |
| 1780 | 980 | 1820 |  |  | C=C(C)c1cncc(NC(=O)Nc2cnc(-n3nccn3)c(Cl)c2)c1C(C)OC (racemic) [Co. 29] |
| 14100 | 8710 | > 15100 |  |  | COC(C)c1c(NC(=O)Nc2cnc(-n3nccn3)c(Cl)c2)cncc1C(N)=O (racemic) [Co. 39] |
| 1700 | 620 | 2340 |  |  | COC(C)c1c(Br)c(C)nc(C)c1NC(=O)Nc1cnc(-n2nccn2)c(Cl)c1 (racemic) [Co. 49] |
| 5750 | 9120 | 7240 |  |  | COC(C)c1cc(C)ncc1NC(=O)Nc1cnc(-n2nccn2)c(Cl)c1 (racemic) [Co. 106] |
| 190 | 100 | 100 |  |  | COC(C)c1c(Br)cncc1NC(=O)Nc1cnc(-n2nccn2)c(Cl)c1 (single isomer, unassigned) [Co. 18] |
| 70 | 10 | 100 |  |  | COC(C)c1c(NC(=O)Nc2cnc(-n3nccn3)c(C(F)(F)F)c2)cnc(C)c1Br (single isomer, unassigned) [Co. 59] |
| 6610 | 15100 | > 15000 |  |  | COC(C)c1c(NC(=O)Nc2ccnc(C(F)(F)F)c2)cnc(C)c1Cl (single isomer, unassigned) [Co. 65] |
| > 15000 | > 30200 | > 15000 |  |  | COC(C)c1c(NC(=O)Nc2cnc(C3CC3)c(C(F)(F)F)c2)cnc(C)c1Cl (single isomer, unassigned) [Co. 68] |
| 2570 | 5890 | 5750 |  |  | COc1ncc(NC(=O)Nc2cnc(C)c(Br)c2C(C)OC)cc1C#N (single isomer, unassigned) [Co. 98] |
| 170 | 60 | 400 |  |  | COC(C)c1c(NC(=O)Nc2cnc(-n3ncc(C(C)O)n3)c(Cl)c2)cnc(C)c1C#N (single isomer, unassigned) [Co. 114] |
| 40 | 30 | 60 |  |  | COC(C)c1c(NC(=O)Nc2cnc(-n3nccn3)c(C(F)(F)F)c2)cnc(C(F)F)c1C#N (single isomer, unassigned) [Co. 127] |
| 210 | 230 | 460 |  |  | COC(C)c1c(NC(=O)Nc2cnc(-n3nccn3)c(C(F)(F)F)c2)cnc(C(F)F)c1C#N (single isomer, unassigned) [Co. 128] |
|  | 1380 |  | 1020 | 2290 | [2H]C([2H])([2H])Oc1cncc(NC(=O)Nc2cnc(-n3nccn3)c(C(F)(F)F)c2)c1[C@H](C)OC (single isomer, unassigned) [Co. 129] |
|  | 50 |  | ~110 | 190 | [2H]C([2H])([2H])Oc1cncc(NC(=O)Nc2cnc(-n3nccn3)c(C(F)(F)F)c2)c1[C@@H](C)OC (single isomer, unassigned) [Co. 130] |
|  | 1020 |  | ~890 | 2340 | [2H]C([2H])([2H])O[C@@H](C)c1c(NC(=O)Nc2cnc(-n3nccn3)c(C(F)(F)F)c2)cncc1OC (single isomer, unassigned) [Co. 131] |
|  | 50 |  | 60 | 150 | [2H]C([2H])([2H])O[C@H](C)c1c(NC(=O)Nc2cnc(-n3nccn3)c(C(F)(F)F)c2)cncc1OC (single isomer, unassigned) [Co. 132] |
|  | 550 |  | 310 | 930 | CO[C@@H](C)c1c(NC(=O)Nc2cnc(-n3nccn3)c(C(F)(F)F)c2)cnc(C(F)F)c1Cl (single isomer, unassigned) [Co. 133] |
|  | 40 |  | 80 | 80 | CO[C@H](C)c1c(NC(=O)Nc2cnc(-n3nccn3)c(C(F)(F)F)c2)cnc(C(F)F)c1Cl (single isomer, unassigned) [Co. 134] |
|  | 60 |  | 30 | 60 | CO[C@H](C)c1c(NC(=O)Nc2cnc(OC(F)F)c(Cl)c2)cnc(N)c1Cl (single isomer, unassigned) [Co. 136] |
|  | 40 |  | 80 | 80 | COc1cncc(NC(=O)Nc2cc(C(F)(F)F)c(-n3nccn3)nc2OC)c1[C@H](C)OC (single isomer, unassigned) [Co. 137] |
|  | 290 |  | 380 | 600 | CO[C@H](C)c1c(NC(=O)Nc2cnc(-n3nccn3)c(C(F)(F)F)c2)cnc(N)c1Br (single isomer, unassigned) [Co. 138] |
|  | 20 |  | 70 | ~100 | CO[C@@H](C)c1c(NC(=O)Nc2cnc(-n3nccn3)c(C(F)(F)F)c2)cnc(N)c1Br (single isomer, unassigned) [Co. 139] |
|  | ~620 |  | 470 | 540 | COc1cncc(NC(=O)Nc2cc(Cl)c(-n3nccn3)nc2OC)c1[C@@H](C)OC (single isomer, unassigned) [Co. 140] |
| 150 |  | 320 |  |  | CO[C@H](C)c1c(NC(=O)Nc2cnc(OC(F)F)c(Cl)c2)cnc(C)c1C#N [Co. 71] |
